The target in this experiment is T1, human V1A receptor (Homo sapiens, UniProt P37288).
T1 construct: expressed in transfected cells
The experiment in a line: Saturation experiment with RP-LC-ICP-MS (78Se) read-out on CHO cells stably expressing the human V1A receptor. As to conditions: [Se-Se]-AVP 0.05 nM to 80 nM, non-specific with 2000-fold excess of AVP, binding buffer pH 7.4, 4 h at 4°C, 1% TFA dissociation, mean of 2 independent experiments carried out in triplicate, ±SD, read-out: dissociation constant (Kd). On the procedure: (§1) Assays were performed in triplicate.
as §1

Residues, ends and D or L forms follow the SMILES beside them.

By Kd is commonly meant the equilibrium constant for the complex coming apart.

T1 sequence (P37288 whole entry): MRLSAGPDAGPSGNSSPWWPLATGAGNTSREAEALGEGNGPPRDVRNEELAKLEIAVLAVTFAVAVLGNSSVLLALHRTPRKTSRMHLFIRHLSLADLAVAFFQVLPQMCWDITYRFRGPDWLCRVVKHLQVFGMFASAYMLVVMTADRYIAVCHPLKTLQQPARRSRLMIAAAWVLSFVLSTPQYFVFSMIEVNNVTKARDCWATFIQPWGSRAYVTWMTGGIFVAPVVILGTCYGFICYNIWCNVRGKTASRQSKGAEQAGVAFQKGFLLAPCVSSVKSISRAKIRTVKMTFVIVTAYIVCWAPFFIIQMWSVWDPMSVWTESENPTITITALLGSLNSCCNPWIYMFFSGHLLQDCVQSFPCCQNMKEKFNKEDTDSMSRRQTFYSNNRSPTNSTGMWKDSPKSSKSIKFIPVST

`N=C(N)NCCC[C@H](NC(=O)[C@@H]1CCCN1C(=O)[C@@H]1C[Se][Se]C[C@H](N)C(=O)N[C@@H](Cc2ccc(O)cc2)C(=O)N[C@@H](Cc2ccccc2)C(=O)N[C@@H](CCC(N)=O)C(=O)N[C@@H](CC(N)=O)C(=O)N1)C(=O)NCC(N)=O` [[Se-Se]-AVP] (HELM PEPTIDE1{[N[C@@H](C[Se][*:3])C(=O)[*:2]].Y.F.Q.N.[O=C([C@H](C[Se][*:3])N[*:1])[*:2]].P.R.G.[am]}$PEPTIDE1,PEPTIDE1,1:R3-6:R3$$$V2.0): the Kd is 0.99 ± 0.14 nM.

Values taken from publication PMC4918930, “Investigation of Elemental Mass Spectrometry in Pharmacology for Peptide Quantitation at Femtomolar Levels” (PLoS ONE, 2016).
